This is an account of results in patent US20160166627A1, “JOINT HEALTH COMPOSITIONS” (NESTEC S.A., priority 2013, published 2016).

The subject of this experiment is tumor necrosis factor α (TNF-α). Briefly: Serum TNF-α (inflammation marker) in ovariectomized rats, Rat TNF-α Platinum ELISA. Particulars: week 12 (end of study), vs OVX group, P<0.05. The format is in vivo, Sprague-Dawley rats. Here is the method: Ovariectomized (OVX) rats were used as a model to mimic osteoarthritis in healthy postmenopausal women. The effect of fructus corni on suppressing markers of cartilage degeneration, cross linked C-telopeptide of type 2 collagen (CTX-II) and inflammation, tumor necrosis factor α (TNF-α), was examined. Seven month-old female Sprague-Dawley rats were purchased from Beijing Weitong Lihua Laboratory Animal Centre. Surgery was performed by the research team in Shenyang Medical College. The rats were anaesthetized with Hypnorm™/Dormicum™ (1 part Hypnorm™+1 part Dormicum™+2 parts sterile water) given by injection at 0.2 ml/100 g body weight. After anaesthesia the animal was shaved on the back and the skin disinfected. A single incision in the skin was made above the spine, providing access to both ovaries. The muscles were cut to provide access and the ovaries were located and removed by cutting. The muscle on each side was closed with 1-2 stitches, and the skin was closed with 3-4 stitches. […] Rats in group F had free access to distilled water containing 0.5% glucosamine and the amount of water consumed was recorded for each rat. […] CTX-II was measured using the Serum Preclinical Cartilaps ELISA (Nordic Bioscience, Herlev, Denmark). […] Serum TNFα was measured using Rat TNF-α Platinum ELISA (eBioscience, USA) for the serum collected at the end of the study only. […] Data were expressed as means±SD. […]
(In an ELISA, binding on a coated surface is turned into a signal by an enzyme label.)

The structures appear in SMILES notation. Where a name gives a salt, the structure may show the parent alone.

Take `N[C@H]1C(O)O[C@H](CO)[C@@H](O)[C@@H]1O` (stereo partly shown) [glucosamine, Glucosamine (GS) hydrochloride]: the “serum TNF-α concentration, increase induced by OVX” value is given as “not observed”.
